Source: US6653081B2, “Methods for monitoring antiretroviral therapy and guiding therapeutic decision in the treatment of HIV/AIDS” (ViroLogic, Inc., priority 2000, dated 2003)
Where “and” joins values, the source holds several entries; their conditions need not be identical. Equal values may be shown once.

What was measured:
RTV-011073/241V = assay: Phenotypic susceptibility assay, RTV-011073/241V; assay type: cell-based, HIV; conditions: RTV-011073 with V241S reverted
Text: (§1) The resistance test vectors containing a functional luciferase gene cassette were constructed and host cells were transfected with the resistance test vector DNA. The resistant test vectors contained patient-derived reverse transcriptase and protease sequences that were either susceptible or resistant to the antiretroviral agents, such as nucleoside reverse transcriptase inhibitors, (NRTIs) non-nucleoside reverse transcriptase inhibitors […] protease inhibitors. The resistance test vector viral particles produced by transfecting the resistance test vector DNA into host cells, either in the presence or absence of PRIs, were used to infect target host cells grown either in the absence of NRTIs or NNRTIs, or in the presence of increasing concentrations of the drug. The amount of luciferase activity produced in infected target host cells in the presence of varying concentrations of drug was compared to the amount of luciferase produced in infected target host cells in the absence of drug. “Drug resistance” was measured as the amount of drug required to inhibit by 50% the luciferase activity detected in the absence of drug (inhibitory concentration 50%, IC50). The IC50 values were determined by plotting percent drug inhibition vs. log10 drug concentration. Stimulation of viral replication was measured as the percent increase in luciferase activity detected when infection occurs in the presence of drug as compared to in the absence of drug.
(§2) Host cells were seeded in 10-cm-diameter dishes and were transfected several days after plating with resistance test vector plasmid DNA and the envelope expression vector. Transfections were performed using a calcium-phosphate precipitation procedure. The cell culture media containing the DNA precipitate was replaced with fresh medium, from one to 24 hours, after transfection. Cell culture media containing resistance test vector viral particles was harvested one to four days after transfection and was passed through a […] filter before being used to infect target host cells, or being stored at −80° C. HIV capsid protein (p24) levels in the harvested cell culture media were determined by an EIA method as described by the manufacturer (SAIC; Frederick, Md.). Before infection, target cells (293 and 293/T) were plated in cell culture media. Control infections were performed using cell culture media from mock transfections (no DNA) or transfections containing the resistance test vector plasmid DNA without the envelope expression plasmid. One to three or more days after infection, the media was removed and cell lysis buffer (Promega) was added to each well. Cell lysates were assayed for luciferase activity (FIG. 3). The inhibitory effect of the drug was determined using the following equation:
(§3) % luciferase inhibition=1−(RLUluc[drug]÷RLUluc)×100
(§4) where RLUluc [drug] is the Relative Light Unit of luciferase activity in infected cells in the presence of drug, and RLUluc is the Relative Light Unit of luciferase activity in infected cells in the absence of drug. IC50values were obtained from the sigmoidal curves that were generated from the data by plotting the percent inhibition of luciferase activity vs. the log10 drug concentration. The percent luciferase stimulation is the negative of the % inhibition calculated using the formula above.
A resistance test vector containing all of the mutations present in RTV-011073 except for the V241S and the T277K was constructed and tested using the phenotypic assay described earlier. The results were compared to those determined using the parent RTV-011073. We determined the pattern of phenotypic susceptibility to the NNRTIs, delavirdine, nevirapine and efavirenz, in the reverted vector RTV-011073/241V/277T. […] A resistance test vector containing all of the mutations present in RTV-011073 except for the V241S was constructed and tested using the phenotypic assay described earlier. The results were compared to those determined using the parent RTV-011073. […]

RTV-005738 = assay: Phenotypic susceptibility assay, RTV-005738; assay type: cell-based, HIV; conditions: patient 005738; for decrease in susceptibility: V245E with multiple other mutations
Text: as §1, §2, §3, §4
A resistance test vector was constructed as described in Example 1 from a virus sample obtained from patient 005738. The prior and current treatment regimens are unknown. Isolation of viral RNA and RT/PCR was used to generate a patient derived segment (PDS) that comprised viral sequences coding for all of PR and aa 1-313 of RT […]. The PDS were inserted into an indicator gene viral vector to generate a resistance test vector designated RTV-005738. RTV-005738 was then tested in a phenotypic assay to determine accurately and quantitatively the level of susceptibility to a panel of anti-retroviral drugs. […]

RTV-010829/245V = assay: Phenotypic susceptibility assay, RTV-010829/245V; assay type: cell-based, HIV; conditions: RTV-010829 with V245E reverted
Text: as §1, §2, §3, §4
A resistance test vector containing all of the mutations present in RTV-010829 except for the V245E mutation (RTV-010829/245V) was constructed and tested using the phenotypic assay described earlier. The results were compared to those determined using the parent RTV-010829. We determined the pattern of phenotypic susceptibility to the NNRTIs, delavirdine, nevirapine and efavirenz, in the reverted vector RTV-010829/245V. […] A resistance test vector containing all of the mutations present in RTV-010829 except for the I270M (RTV-010829/270I) was constructed and tested using the phenotypic assay described earlier. […]

RTV-K103N/I135T/V245T = assay: Phenotypic susceptibility assay, RTV-K103N/I135T/V245T; assay type: cell-based, HIV-1; conditions: site-directed K103N + I135T + V245T
Text: as §1, §2, §3, §4
A resistance test vector containing three mutations, K103N, I135T and V245T (RTV-K103N/I135T/V245T) was constructed and tested in the phenotypic assay described earlier. The results were compared to those determined using a genetically defined resistance test vector that was wild type at positions 103, 135 and 245. We determined the pattern of phenotypic susceptibility to the NNRTIs, delavirdine, nevirapine and efavirenz, in RTV-K103N.

RTV-309 = assay: Phenotypic susceptibility assay, RTV-309; assay type: cell-based, HIV; conditions: patient 1033 sample before any NNRTI
Text: The resistance test vectors containing a functional luciferase gene cassette were constructed and host cells were transfected with the resistance test vector DNA. The resistant test vectors contained patient-derived reverse transcriptase and protease sequences that were either susceptible or resistant to the antiretroviral agents, such as nucleoside reverse transcriptase inhibitors, (NRTIs) non-nucleoside reverse transcriptase inhibitors […] protease inhibitors. The resistance test vector viral particles produced by transfecting the resistance test vector DNA into host cells, either in the presence or absence of PRIs, were used to infect target host cells grown either in the absence of NRTIs or NNRTIs, or in the presence of increasing concentrations of the drug. The amount of luciferase activity produced in infected target host cells in the presence of varying concentrations of drug was compared to the amount of luciferase produced in infected target host cells in the absence of drug. […] The IC50 values were determined by plotting percent drug inhibition vs. log10 drug concentration. Stimulation of viral replication was measured as the percent increase in luciferase activity detected when infection occurs in the presence of drug as compared to in the absence of drug.
Host cells were seeded in 10-cm-diameter dishes and were transfected several days after plating with resistance test vector plasmid DNA and the envelope expression vector. […] HIV capsid protein (p24) levels in the harvested cell culture media were determined by an EIA method as described by the manufacturer (SAIC; Frederick, Md.). […] The inhibitory effect of the drug was determined using the following equation: […]
where RLUluc [drug] is the Relative Light Unit of luciferase activity in infected cells in the presence of drug, and RLUluc is the Relative Light Unit of luciferase activity in infected cells in the absence of drug. […] The percent luciferase stimulation is the negative of the % inhibition calculated using the formula above. […]

RTV-309-3/184M = assay: Phenotypic susceptibility assay, RTV-309-3/184M; assay type: cell-based, HIV; conditions: RTV-309-3 with M184V reverted
Text: as §1, §2, §3, §4
A resistance test vector containing all of the mutations present in RTV-309-3 except for the M184V (RTV-309-3/184M) was constructed and tested using the phenotypic assay described earlier. The results were compared to those determined using the parent RTV-309-3. We determined the pattern of phenotypic susceptibility to the NNRTIs, delavirdine, nevirapine and efavirenz, in the reverted vector, RTV-309-3/184M.

Structure (SMILES) | drug-dependent stimulation of viral replication (RTV-011073/241V) | reductions in susceptibility compared to wild type control RTV (RTV-011073/241V) [fold] | drug-dependent stimulation of viral replication (RTV-005738) [%] | decrease in susceptibility (RTV-005738) [fold] | drug-dependent stimulation of viral replication (RTV-010829/245V) [%] | reductions in susceptibility compared to wild type control RTV (RTV-010829/245V) [fold] | drug-dependent stimulation of viral replication (RTV-K103N/I135T/V245T) [%] | reductions in susceptibility compared to wild type control RTV (RTV-K103N/I135T/V245T) | reduction in susceptibility (RTV-309) | drug-dependent stimulation of viral replication (RTV-309-3/184M) [%] | reduction in susceptibility compared to wild type control RTV (RTV-309-3/184M) [fold]
CC(C)Nc1cccnc1N1CCN(C(=O)c2cc3cc(NS(C)(=O)=O)ccc3[nH]2)CC1 [delavirdine] | no longer negative inhibition | 59 | ~40 | 63 | ~60 | 182 | ~50 | > 250 fold | wild type pattern of susceptibility | ~50 | 4
O=C1Nc2ccc(Cl)cc2[C@@](C#CC2CC2)(C(F)(F)F)O1 [efavirenz] | no longer negative inhibition | 54 | ~20 | 17 | ~60 | 189 | ~25 | 174 fold | wild type pattern of susceptibility | ~60 | 5
Cc1ccnc2c1NC(=O)c1cccnc1N2C1CC1 [nevirapine] | no longer negative inhibition | 146 | ~20 | > 600 | ~80 | 505 | ~40 | 594 fold and 544 fold | 3 fold | ~80 | 9
